Experimental data: ChEMBL document CHEMBL1127331, “Pyridobenzoxazepine and pyridobenzothiazepine derivatives as potential central nervous system agents: synthesis and neurochemical study” (J Med Chem, 1994)

Columns and labels:
D(1A) dopamine receptor = D(1A) dopamine receptor (Rattus norvegicus, UniProt P18901)
Description: Binding affinity against dopamine receptor D1

[1] = target: Serotonin 2 (5-HT2) receptor (Rattus norvegicus, UniProt P30994+P08909+P14842)
Description: Binding affinity against serotonin 5-hydroxytryptamine 2 receptor

[2] = target: Muscarinic acetylcholine receptor
Description: Binding affinity against muscarinic (M) receptor

Rattus norvegicus [3] = organism: Rattus norvegicus; assay: animal or person; details: sc, read-out: Inhibition
Description: (§1) Inhibitory activity in apomorphine antagonism test at a dose of 20 mg/kg, sc

Rattus norvegicus [4] = organism: Rattus norvegicus; assay: animal or person; details: sc
Description: as §1

D(1A) dopamine receptor, sequence (P18901 whole entry): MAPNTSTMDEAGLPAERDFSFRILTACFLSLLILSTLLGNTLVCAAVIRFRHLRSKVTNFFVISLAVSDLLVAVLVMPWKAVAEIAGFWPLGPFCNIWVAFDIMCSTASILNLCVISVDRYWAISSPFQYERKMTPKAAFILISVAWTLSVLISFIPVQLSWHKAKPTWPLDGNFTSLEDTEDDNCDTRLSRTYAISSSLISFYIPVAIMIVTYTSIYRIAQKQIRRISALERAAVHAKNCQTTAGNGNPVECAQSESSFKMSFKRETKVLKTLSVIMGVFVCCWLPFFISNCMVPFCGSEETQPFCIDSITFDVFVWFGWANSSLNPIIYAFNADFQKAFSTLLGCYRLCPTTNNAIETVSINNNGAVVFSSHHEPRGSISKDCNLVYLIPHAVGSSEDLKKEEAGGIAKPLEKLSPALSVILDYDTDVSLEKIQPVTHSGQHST

Row | Ki (D(1A) dopamine receptor) [nM] | -Log Ki [1] | -Log Ki [2] | Compound | inhibition in vivo at 20 mg/kg (Rattus norvegicus [3]) [%] | ED50 (Rattus norvegicus [4]) [mg/kg]
1 | 302 | 7.19 | 5.65 | CN1CCN(C2=Nc3cc(Cl)ccc3Oc3ncccc32)CC1 | 0 | 
2 |  | 4.65 | 6.07 | CN1CCN(C2=Nc3cccnc3Oc3ccccc32)CC1 | 0 | 
3 | 1070 | 7.35 | 5.86 | CN1CCN(C2=Nc3cccnc3Oc3ccc(Cl)cc32)CC1 | 100 | 
4 | 15500 | 6.55 | 6.68 | CN1CCN(C2=Nc3cnccc3Sc3ccccc32)CC1 | 0 | 
5 | 759 | 7.01 | 5.42 | Cc1ccc2c(c1)N=C(N1CCN(C)CC1)c1cccnc1O2 | 0 | 
6 | 676 | 7.35 | 5.75 | CN1CCN(C2=Nc3cccnc3Sc3ccc(Cl)cc32)CC1 | 100 | 
7 | 8130 | 5.94 | 6.13 | CN1CCN(C2=Nc3cccnc3Sc3ccccc32)CC1 | 0 | 
8 |  | 9.23 |  | CN1CCN(C2=Nc3ccccc3Sc3ccc(Cl)cc32)CC1 [CLOTHIAPINE] | 100 | 0.72
9 |  |  |  | CN1CCN(C2=Nc3cc(Cl)ccc3Nc3ccccc32)CC1 [CLOZAPINE] | 0 | 
10 |  | 8.41 |  | CN1CCN(C2=Nc3cc(F)ccc3Cc3ccccc32)CC1 [FLUPERLAPINE] |  | 
11 |  |  |  | O=C(CCCN1CCC(O)(c2ccc(Cl)cc2)CC1)c1ccc(F)cc1 [HALOPERIDOL] | 100 | 0.14
12 |  | 8.38 |  | CN1CCN(C2=Nc3cc(Cl)ccc3Sc3ccccc32)CC1 [ISOCLOTHIAPINE] |  | 
13 |  |  |  | CN1CCN(C2=Nc3ccccc3Nc3ccc(Cl)cc32)CC1 [ISOCLOZAPINE] |  | 1.7

Row | Compound | Ki (D(1A) dopamine receptor) [nM] | -Log Ki [1] | -Log Ki [2] | inhibition in vivo at 20 mg/kg (Rattus norvegicus [3]) [%] | ED50 (Rattus norvegicus [4]) [mg/kg]
14 | CN1CCN(C2=Nc3ccccc3Oc3ncccc32)CC1 | 2400 | 5.85 | 5.47 | 0 | 
15 | CN1CCN(C2=Nc3ccccc3Sc3ncccc32)CC1 | 1620 | 6.29 | 5.61 | 0 | 
